*1 amine or outer side, *2 acyl side, *3 side chain or, on linkers, in order; H or OH if unused. Where a SMILES comes first, the peptide text is derived from it. [ ]: non-standard residue; d: D form. The star is where a group is joined. GluureaLys(ε-3-ClBenzyl) = O=C(O)CC[C@H](NC(=O)N[C@@H](CCCCN(Cc1cccc(Cl)c1)*)C(=O)O)C(=O)O; X5 = O=C(O)CC[C@H](NC(=O)N[C@@H](CCCCN(Cc1ccc(C(=O)O)cc1)*)C(=O)O)C(=O)O; X6 = O=C(O)CC[C@H](NC(=O)N[C@@H](CCCCN(Cc1ccc(Br)cc1)*)C(=O)O)C(=O)O; Dolaproine = CO[C@@H]([C@@H]1CCCN1)[C@@H](C)C(=O)O; Dil = CC[C@H](C)[C@H](NC)[C@@H](CC(=O)O)OC; X2 = O=C(CCCc1cn(CCCN[*:1])nn1)[*:2]; PABC = O=C(OCc1ccc(N[*:1])cc1)[*:2]; X1 = C[C@@H](N*)[C@@H](O)c1ccccc1; Cit = NC(=O)NCCC[C@H](N)C(=O)O; Suc = O=C(CCC(=O)[*:2])[*:1]; NMeV = CN[C@H](C(=O)O)C(C)C; Ahx = NCCCCCC(=O)O
What was measured:
[1] = biological target: T1, PSMA (glutamate carboxypeptidase II, GCPII) (Homo sapiens, UniProt Q04609); test: Inhibition of the NAAG cleavage reaction (affinity to PSMA), LNCaP cell extract; type: biochemical; conditions: SD
T1 construct: endogenous in cells; host or cells: LNCaP cells (Triton X-100 lysate, sonicated, supernatant after 1000g)
T1 sequence (Q04609 whole entry): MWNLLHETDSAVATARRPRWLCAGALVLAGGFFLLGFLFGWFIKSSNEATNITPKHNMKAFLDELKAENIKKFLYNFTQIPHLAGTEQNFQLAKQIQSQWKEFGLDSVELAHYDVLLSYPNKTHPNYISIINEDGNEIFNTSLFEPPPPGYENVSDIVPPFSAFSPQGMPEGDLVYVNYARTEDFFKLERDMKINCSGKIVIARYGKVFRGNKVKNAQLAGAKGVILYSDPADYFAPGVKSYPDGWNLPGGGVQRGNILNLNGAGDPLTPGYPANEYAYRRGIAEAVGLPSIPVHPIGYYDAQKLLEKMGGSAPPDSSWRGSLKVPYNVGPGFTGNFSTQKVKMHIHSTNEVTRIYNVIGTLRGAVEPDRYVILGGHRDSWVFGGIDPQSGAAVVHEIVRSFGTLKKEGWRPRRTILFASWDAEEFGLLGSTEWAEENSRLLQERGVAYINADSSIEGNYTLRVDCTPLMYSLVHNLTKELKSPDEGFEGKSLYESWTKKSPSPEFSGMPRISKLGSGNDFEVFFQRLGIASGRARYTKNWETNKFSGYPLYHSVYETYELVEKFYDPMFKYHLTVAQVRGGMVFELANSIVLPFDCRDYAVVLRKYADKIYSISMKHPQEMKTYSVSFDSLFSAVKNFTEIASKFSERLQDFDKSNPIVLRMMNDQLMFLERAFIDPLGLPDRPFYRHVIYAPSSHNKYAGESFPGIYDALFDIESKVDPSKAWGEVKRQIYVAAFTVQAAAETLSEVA
Method: The affinity of the four newly obtained ligands to PSMA was evaluated in vitro by inhibiting the cleavage of N-acetylaspartylglutamic acid (NAAG). One function of PSMA, also known as glutamate carboxypeptidase II (GCPII), is the cleavage of NAAG into N-acetylaspartate and glutamate. PSMA-specific ligands inhibit this reaction by interacting with the protein. Thus, the calculation of the values of half-maximum inhibition (IC50) allows evaluation of the binding efficiency of the synthesized compounds to the protein. The analogues of the obtained ligands 6a–d without a lysine residue in their structure were chosen as comparison ligands. Also, some ligands previously described in the literature were chosen as references.
LNCaP cells were cultured in RPMI medium with 10% FBS (Gibco, Billings, MT, USA), 1xGlutamax (Gibco) and 1x penicillin-streptomycin mixture (Gibco, USA). To suspend the cells, growth medium was removed from the 25 cm^2 vial, the cells were washed with PBS buffer and incubated for 5 min with 0.25% trypsin (1 mL). Trypsin was inactivated with complete growth medium (2 mL), washed with PBS, transferred 10^6 cells to a test tube, and 500 μL of lysis buffer (0.5% Triton X-100, 50 mM Tris-HCl (pH 7.5) and 1× Proteinase Inhibition cocktail) was added. The suspension was incubated for 30 min on ice and sonicated (seven times 7 sec at 20–30 s intervals) on ice to avoid overheating. The suspension was centrifuged for 10 min at 1000g at 4 °C, and the supernatant was used in further analysis.
The inhibition by PSMA ligands was analyzed using a non-radioactive protocol with detection of the glutamate released during the reaction. LNCaP cell line extract (10 μL) was mixed with 2 μL of the appropriate compound preparation. A series of dilutions of 2 nM-100 μM compounds was used for initial testing, with dilution steps of 3–5 times. To the resulting mixture, 1 μL of 100 μM NAAG solution was added. The mixture was incubated for 2 h at 37 °C. After incubation, the mixture was doubled with reaction buffer (13 μL) from the Amplex Red Glutamic Acid Kit (Molecular Probes Inc., Eugene, OR, USA), and the multi-component glutamate detection reaction mixture prepared according to the manufacturer’s protocol (26 μL) was added. Amplex Red stock solution: 5 μL Amplex® Red reagent stock solution, 1.25 μL HRP stock solution, 8 μL L-glutamate oxidase, 2.5 μL L-glutamate pyruvate transaminase, 0.5 μL L-alanine, 483 μL 1× reaction buffer. Incubation was performed for 1 h at 37 °C. The fluorescence of resorufin produced by conjugated glutamate detection kit reactions was detected on a VICTORX5 multidetector plate (Perkin Elmer Inc., Waltham, MA, USA) at an excitation length of 555 nm and detection at 580 nm. As a control for endogenous glutamate levels with replacement of the NAAG solution with water.

LNCaP cells = test: In vitro cytotoxicity, MTS assay, LNCaP; type: cell-based; conditions: 72 h, high PSMA expression, range 0.5 to 800 nM, triplicates
Method: (§1) The resulting bimodal conjugates were tested in vitro on three different PCa cell lines. We used LNCaP cells with high PSMA expression, 22Rv1 cells with moderate PSMA expression and PC-3 cells with extremely low PSMA expression. Different levels of PSMA expression in 22Rv1 and LNCaP cell lines allows evaluation of the effect of the level of expression on the toxicity of the target drugs. PSMA-negative cell line PC-3 allows a qualitative assessment of non-specific toxicity of the obtained compounds.
(§2) The cytotoxicity of the investigated substances was tested using the MTS assay with some modifications. Cells were seeded in the 96-well plates (Corning, New York, NY, USA) at concentration of 7000 cells per well for PC-3 culture, 12,000 cells per well for LNCaP cells and 20,000 cells per well for 22Rv1 line. The cells were counted using the automatic cell counter EVE. All cell lines were purchased from the American Type Culture Collection (ATCC, Manassas, VA, USA). After 1 day, serial dilutions of tested substances were added to the cells. Cell culture medium with addition of DMSO in appropriate concentrations was used as a negative control. DMSO (30%) was added in culture medium as a positive control. Cells were then incubated during 72 h at 37 °C and 5% CO2. Later, the culture medium from each well was removed and 20 μL of MTS reagent (CellTiter 96 AQueous Non-Radioactive Cell Proliferation Assay, Promega) were added to each well with 100 μL of new culture medium. After 4 h incubation at 37 °C in darkness, the absorbance of the solution was measured at 490 nm wavelength using Thermo Scientific Multiskan GO spectrometer. Cell viability was calculated as a percentage compared to control cells. The absorbance of MTS reagent in culture medium without cells was taken as zero. […] Experiments were performed in triplicates. Data were analyzed using Prism 9—GraphPad version 9.2.0 software. p values < 0.05 were considered significant.

22Rv1 cells = test: In vitro cytotoxicity, MTS assay, 22Rv1; type: cell-based, human; conditions: 72 h, moderate PSMA expression, range 0.5 to 800 nM, triplicates
Method: as §1, §2

PC-3 cells = test: In vitro cytotoxicity, MTS assay, PC-3; type: cell-based, human; conditions: 72 h, extremely low PSMA expression, range 0.5 to 800 nM, triplicates
Method: as §1, §2

[2] = inhibition of NAAG cleavage, LNCaP cell extract, 2 h at 37 °C, glutamate detected with Amplex Red kit (fluorescence)

Structure (SMILES)	IC50 [1] [nM]	IC50 [1, 2] [nM]	CC50, LNCaP (LNCaP cells) [nM]	CC50, 22Rv1 (22Rv1 cells) [nM]	CC50, PC-3 (PC-3 cells) [nM]
[N-]=[N+]=NCCCNC(=O)[C@H](CCCCN)NC(=O)[C@H](Cc1ccc(O)cc1)NC(=O)[C@H](Cc1ccccc1)NC(=O)CCC(=O)NCCCCCC(=O)N(CCCC[C@H](NC(=O)N[C@@H](CCC(=O)O)C(=O)O)C(=O)O)Cc1cccc(Cl)c1 [6a, (3S,7S,25S,28S,31S)-31-(4-aminobutyl)-36-azido-25-benzyl-12-(3-chlorobenzyl)-28-(4-hydroxybenzyl)-5,13,20,23,26,29,32-heptaoxo-4,6,12,19,24,27,30,33-octaazahexatriacontane-1,3,7-tricarboxylic acid]	13 ± 3	–	–	–	–
[N-]=[N+]=NCCCNC(=O)[C@H](CCCCN)NC(=O)[C@H](Cc1ccc(O)cc1)NC(=O)[C@H](Cc1ccccc1)NC(=O)CCC(=O)NCCCCCC(=O)N(CCCC[C@H](NC(=O)N[C@@H](CCC(=O)O)C(=O)O)C(=O)O)Cc1ccc(Br)cc1 [6b, (3S,7S,25S,28S,31S)-31-(4-aminobutyl)-36-azido-25-benzyl-12-(4-bromobenzyl)-28-(4-hydroxybenzyl)-5,13,20,23,26,29,32-heptaoxo-4,6,12,19,24,27,30,33-octaazahexatriacontane-1,3,7-tricarboxylic acid]	11 ± 2	–	–	–	–
[N-]=[N+]=NCCCNC(=O)[C@H](CCCCN)NC(=O)[C@H](Cc1ccc(O)cc1)NC(=O)[C@H](Cc1ccccc1)NC(=O)CCC(=O)NCCCCCC(=O)N(CCCC[C@H](NC(=O)N[C@@H](CCC(=O)O)C(=O)O)C(=O)O)Cc1ccc(C(=O)O)cc1 [6c, (3S,7S,25S,28S,31S)-31-(4-aminobutyl)-36-azido-25-benzyl-12-(4-carboxybenzyl)-28-(4-hydroxybenzyl)-5,13,20,23,26,29,32-heptaoxo-4,6,12,19,24,27,30,33-octaazahexatriacontane-1,3,7-tricarboxylic acid]	–	10 ± 3	–	–	–
[N-]=[N+]=NCCCNC(=O)[C@H](CCCCN)NC(=O)[C@H](Cc1ccccc1)NC(=O)[C@H](Cc1ccccc1)NC(=O)CCC(=O)NCCCCCC(=O)N(CCCC[C@H](NC(=O)N[C@@H](CCC(=O)O)C(=O)O)C(=O)O)Cc1ccc(C(=O)O)cc1 [6d, (3S,7S,25S,28S,31S)-31-(4-aminobutyl)-36-azido-25,28-dibenzyl-12-(4-carboxybenzyl)-5,13,20,23,26,29,32-heptaoxo-4,6,12,19,24,27,30,33-octaazahexatriacontane-1,3,7-tricarboxylic acid]	–	5.5 ± 1.7	–	–	–
CC[C@H](C)[C@@H]([C@@H](CC(=O)N1CCC[C@H]1[C@H](OC)[C@@H](C)C(=O)N[C@H](C)[C@@H](O)c1ccccc1)OC)N(C)C(=O)[C@@H](NC(=O)[C@H](C(C)C)N(C)C(=O)OCc1ccc(NC(=O)[C@H](CCCNC(N)=O)NC(=O)[C@@H](NC(=O)CCCc2cn(CCCNC(=O)[C@H](CCCCN)NC(=O)[C@H](Cc3ccc(O)cc3)NC(=O)[C@H](Cc3ccccc3)NC(=O)CCC(=O)NCCCCCC(=O)N(CCCC[C@H](NC(=O)N[C@@H](CCC(=O)O)C(=O)O)C(=O)O)Cc3cccc(Cl)c3)nn2)C(C)C)cc1)C(C)C [12a] ({GluureaLys(ε-3-ClBenzyl)-Ahx-Suc}-FYK[X2]V[Cit][PABC][NMeV]V[Dil][Dolaproine]-X1)	–	–	157.4 ± 2.0	267.9 ± 3.8	>800
CC[C@H](C)[C@@H]([C@@H](CC(=O)N1CCC[C@H]1[C@H](OC)[C@@H](C)C(=O)N[C@H](C)[C@@H](O)c1ccccc1)OC)N(C)C(=O)[C@@H](NC(=O)[C@H](C(C)C)N(C)C(=O)OCc1ccc(NC(=O)[C@H](CCCNC(N)=O)NC(=O)[C@@H](NC(=O)CCCc2cn(CCCNC(=O)[C@H](CCCCN)NC(=O)[C@H](Cc3ccc(O)cc3)NC(=O)[C@H](Cc3ccccc3)NC(=O)CCC(=O)NCCCCCC(=O)N(CCCC[C@H](NC(=O)N[C@@H](CCC(=O)O)C(=O)O)C(=O)O)Cc3ccc(Br)cc3)nn2)C(C)C)cc1)C(C)C [12b] ({X6-Ahx-Suc}-FYK[X2]V[Cit][PABC][NMeV]V[Dil][Dolaproine]-X1)	–	–	182.6 ± 2.2	247.8 ± 3.3	>800
CC[C@H](C)[C@@H]([C@@H](CC(=O)N1CCC[C@H]1[C@H](OC)[C@@H](C)C(=O)N[C@H](C)[C@@H](O)c1ccccc1)OC)N(C)C(=O)[C@@H](NC(=O)[C@H](C(C)C)N(C)C(=O)OCc1ccc(NC(=O)[C@H](CCCNC(N)=O)NC(=O)[C@@H](NC(=O)CCCc2cn(CCCNC(=O)[C@H](CCCCN)NC(=O)[C@H](Cc3ccc(O)cc3)NC(=O)[C@H](Cc3ccccc3)NC(=O)CCC(=O)NCCCCCC(=O)N(CCCC[C@H](NC(=O)N[C@@H](CCC(=O)O)C(=O)O)C(=O)O)Cc3ccc(C(=O)O)cc3)nn2)C(C)C)cc1)C(C)C [12c] ({X5-Ahx-Suc}-FYK[X2]V[Cit][PABC][NMeV]V[Dil][Dolaproine]-X1)	–	–	177.8 ± 2.2	453.7 ± 9.8	>800
CC[C@H](C)[C@@H]([C@@H](CC(=O)N1CCC[C@H]1[C@H](OC)[C@@H](C)C(=O)N[C@H](C)[C@@H](O)c1ccccc1)OC)N(C)C(=O)[C@@H](NC(=O)[C@H](C(C)C)N(C)C(=O)OCc1ccc(NC(=O)[C@H](CCCNC(N)=O)NC(=O)[C@@H](NC(=O)CCCc2cn(CCCNC(=O)[C@H](CCCCN)NC(=O)[C@H](Cc3ccccc3)NC(=O)[C@H](Cc3ccccc3)NC(=O)CCC(=O)NCCCCCC(=O)N(CCCC[C@H](NC(=O)N[C@@H](CCC(=O)O)C(=O)O)C(=O)O)Cc3ccc(C(=O)O)cc3)nn2)C(C)C)cc1)C(C)C [12d] ({X5-Ahx-Suc}-FFK[X2]V[Cit][PABC][NMeV]V[Dil][Dolaproine]-X1)	–	–	197.8 ± 2.7	463.3 ± 8.0	>800
NCCCC[C@H](NC(=O)N[C@@H](CCC(=O)O)C(=O)O)C(=O)O [DCL, (S)-2-(3-((S)-5-amino-1-carboxypentyl)ureido)pentanedioic acid, reference compound]	–	547 ± 389	–	–	–
C[C@]12CC[C@H](OC(=O)CCCc3cn(CCCNC(=O)[C@H](Cc4ccc(O)cc4)NC(=O)[C@H](Cc4ccccc4)NC(=O)CCC(=O)NCCCCCC(=O)N(CCCC[C@H](NC(=O)N[C@@H](CCC(=O)O)C(=O)O)C(=O)O)Cc4cccc(Cl)c4)nn3)CC1=CC[C@@H]1[C@@H]2CC[C@]2(C)C(c3cccnc3)=CC[C@@H]12 [II, reference compound]	–	–	>800	>800	>800
